Measured values from ChEMBL document CHEMBL1137033, “Novel bisbenzamidines as potential drug candidates for the treatment of Pneumocystis carinii pneumonia” (Bioorg Med Chem Lett, 2004).

Columns and labels:
Pneumocystis carinii = experiment: inhibitory concentration against Pneumocystis carinii; format: functional, organism-based
A549 = experiment: Cytotoxicity against A549 cell line; format: functional, cell-based; conditions: Homo sapiens

SMILES	IC50 (Pneumocystis carinii) [nM]	IC50 (A549) [nM]
N=C(N)c1ccc(OCc2ccccc2COc2ccc(C(=N)N)cc2)cc1	1400	33100
N=C(N)c1ccc(NC(=O)CCCC(=O)Nc2ccc(C(=N)N)cc2)cc1	3	> 300
N=C(N)c1ccc(COc2ccccc2OCc2ccc(C(=N)N)cc2)cc1	1300	44100
N=C(N)c1ccc(NC(=O)CCCCC(=O)Nc2ccc(C(=N)N)cc2)cc1	2	> 200
N=C(N)c1ccc(OCc2ccc(COc3ccc(C(=N)N)cc3)cc2)cc1	1300	30200
N=C(N)c1ccc(OC(=O)c2ccc(C(=O)Oc3ccc(C(=N)N)cc3)cc2)cc1 [BIS(4-CARBAMIMIDOYLPHENYL)TEREPHTHALATE]	13400	121000
N=C(N)c1ccc(OCCCCCOc2ccc(C(=N)N)cc2)cc1 [PENTAMIDINE]	500	24000
